Biological target: Serine/threonine-protein kinase mTOR (Homo sapiens, UniProt P42345)
Test: Inhibition of mTOR (unknown origin) by KINOMEscan assay

IC50: 54.1 µM
SMILES: c1ccc(-c2c(-c3ccccc3)n(Cc3ccco3)c3ncnc(NCCCn4ccnc4)c23)cc1
